Data taken from article PMC3723861, “Nitrile hydratase of Rhodococcus erythropolis: characterization of the enzyme and the use of whole cells for biotransformation of nitriles” (3 Biotech, 2012).

Tested on: T1, nitrile hydratase
T1 construct: gene nthA; native intracellular enzyme purified from R. erythropolis MTCC 1526 grown with CoCl2; subunits about 29 kDa (alpha) and 30 kDa (beta); native 65 kDa
Assay: nicotinamide formation by HPLC, Lineweaver-Burk plot
Type: biochemical, Rhodococcus erythropolis
Conditions: pH 7.0, 20 mM phosphate buffer, 25 °C (Fig. 6 legend says 20 °C); 0.2-2.0 mM substrate

`N#Cc1cccnc1` [3-cyanopyridine] was tested, and the Km was 624 µM.
